The values below are quoted from earlier work in US7829698B2, “Nano-particles comprising cucurbituril derivatives, pharmaceutical composition containing the same, and process for the preparation thereof” (Postech Foundation, priority 2003, dated 2010).

Peptide text beside a SMILES is read from it.

The conditions of the data set: host cucurbituril.
Turning to `NCCCCCCN` [NH2(CH2)6NH2], the “Kf (non-covalent coupling constant between cucurbituril and guest molecule)” value is 2.7e+06 M⁻¹. As to `NCCCCCO` [H2N(CH2)5OH], the “Kf (non-covalent coupling constant between cucurbituril and guest molecule)” value was 690 M⁻¹. For `N[C@@H](Cc1ccccc1)C(=O)NCC(=O)O` [Phe-gly] (H-Phe-Gly-OH), the “Kf (non-covalent coupling constant between cucurbituril and guest molecule)” value was 1100 M⁻¹. Take `CC(C)[C@H](N)C(=O)O` [L-Val]: the “Kf (non-covalent coupling constant between cucurbituril and guest molecule)” value was 1400 M⁻¹. With `N[C@@H](Cc1ccccc1)C(=O)O` [Phe], the “Kf (non-covalent coupling constant between cucurbituril and guest molecule)” value is 1400 M⁻¹. As to `NCCC(=O)O` [H2N(CH2)2COOH], the “Kf (non-covalent coupling constant between cucurbituril and guest molecule)” value was 2300 M⁻¹. Take `C[C@H](N)C(=O)O` [L-Ala]: the “Kf (non-covalent coupling constant between cucurbituril and guest molecule)” value was 1000 M⁻¹. `CC(C)[C@H](NC(=O)CN)C(=O)O` [Gly-val] (H-Gly-Val-OH): the “Kf (non-covalent coupling constant between cucurbituril and guest molecule)” value was 1500 M⁻¹. Take `CCC(=O)O` [CH3CH2COOH]: the “Kf (non-covalent coupling constant between cucurbituril and guest molecule)” value was 590 M⁻¹. Consider `N#CCCN` [H2N(CH2)2CN], for which the “Kf (non-covalent coupling constant between cucurbituril and guest molecule)” value was 440 M⁻¹. For `CC(C)C[C@H](N)C(=O)NCC(=O)O` [Leu-gly] (H-Leu-Gly-OH), the “Kf (non-covalent coupling constant between cucurbituril and guest molecule)” value is 370 M⁻¹.

As to `CCCCCN` [Me(CH2)4NH2], the “Kf (non-covalent coupling constant between cucurbituril and guest molecule)” value was 24000 M⁻¹.
